Data reported in ChEMBL document CHEMBL1221210, “A Cdc7 kinase inhibitor restricts initiation of DNA replication and has antitumor activity” (Nat Chem Biol, 2008).

Experiments:
HeLa [1] = assay: Inhibition of DNA replication in human HeLa cells assessed as interorigin distance between homogenous DNA fibers at 2 uM after 4 hrs by immunofluorescence assay; type: functional
HeLa [2] = assay: Inhibition of DNA replication in human HeLa cells assessed as interorigin distance between homogenous DNA fibers at 2 uM after 6 hrs by immunofluorescence assay; type: functional
HeLa [3] = assay: Inhibition of DNA replication in human HeLa cells assessed as interorigin distance between homogenous DNA fibers at 5 uM after 2 hrs by immunofluorescence assay; type: functional
HeLa [4] = assay: Inhibition of DNA replication in human HeLa cells assessed as interorigin distance between homogenous DNA fibers at 5 uM after 4 hrs by immunofluorescence assay; type: functional
HeLa [5] = assay: Inhibition of DNA replication in human HeLa cells assessed as interorigin distance between homogenous DNA fibers at 20 uM after 4 hrs by immunofluorescence assay; type: functional
HeLa [6] = assay: Inhibition of DNA replication in human HeLa cells assessed as interorigin distance between homogenous DNA fibers at 20 uM after 6 hrs by immunofluorescence assay; type: functional
HeLa [7] = assay: Inhibition of DNA replication in human HeLa cells assessed as increase in replication fork speed per min at 2 uM after 6 hrs by immunofluorescence assay; type: functional
HeLa [8] = assay: Inhibition of DNA replication in human HeLa cells assessed as increase in replication fork speed per min at 20 uM after 2 hrs by immunofluorescence assay; type: functional
HeLa [9] = assay: Inhibition of DNA replication in human HeLa cells assessed as increase in replication fork speed per min at 20 uM after 6 hrs by immunofluorescence assay; type: functional
HeLa [10] = assay: Inhibition of DNA synthesis in human HeLa cells assessed as Brd-U uptake at 5 uM after 6 hrs by FACS analysis; type: functional; parameters: scale not given: the % may be the effect or the level left
Mus musculus = assay: AUC in SCID mouse carrying human HL60 cells at 30 mg/kg, iv after 10 hrs; type: ADME, organism-based, HL-60; parameters: time < 10 hr, dose 30 mg/kg, route intravenous; settings: in vivo
[11] = target: Serine/threonine-protein kinase NIM1 (Homo sapiens, UniProt Q8IY84); assay: Inhibition of NIM1
Serine/threonine-protein kinase NIM1, sequence (Q8IY84 whole entry): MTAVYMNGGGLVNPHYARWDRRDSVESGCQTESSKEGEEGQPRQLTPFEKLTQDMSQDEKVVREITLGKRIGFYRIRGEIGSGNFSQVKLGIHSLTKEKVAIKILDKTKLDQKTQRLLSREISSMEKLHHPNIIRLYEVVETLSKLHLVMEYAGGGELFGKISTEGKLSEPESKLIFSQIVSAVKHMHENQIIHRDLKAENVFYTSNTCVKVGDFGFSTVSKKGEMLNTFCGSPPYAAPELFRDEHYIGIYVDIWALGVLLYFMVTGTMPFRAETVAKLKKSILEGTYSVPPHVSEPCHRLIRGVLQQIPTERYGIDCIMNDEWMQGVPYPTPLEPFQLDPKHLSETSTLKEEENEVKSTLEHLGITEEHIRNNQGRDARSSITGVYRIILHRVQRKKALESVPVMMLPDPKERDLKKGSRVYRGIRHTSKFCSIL

[12] = target: Protein kinase C beta type (Homo sapiens, UniProt P05771); assay: Inhibition of PKCbeta
Protein kinase C beta type, sequence (P05771 whole entry): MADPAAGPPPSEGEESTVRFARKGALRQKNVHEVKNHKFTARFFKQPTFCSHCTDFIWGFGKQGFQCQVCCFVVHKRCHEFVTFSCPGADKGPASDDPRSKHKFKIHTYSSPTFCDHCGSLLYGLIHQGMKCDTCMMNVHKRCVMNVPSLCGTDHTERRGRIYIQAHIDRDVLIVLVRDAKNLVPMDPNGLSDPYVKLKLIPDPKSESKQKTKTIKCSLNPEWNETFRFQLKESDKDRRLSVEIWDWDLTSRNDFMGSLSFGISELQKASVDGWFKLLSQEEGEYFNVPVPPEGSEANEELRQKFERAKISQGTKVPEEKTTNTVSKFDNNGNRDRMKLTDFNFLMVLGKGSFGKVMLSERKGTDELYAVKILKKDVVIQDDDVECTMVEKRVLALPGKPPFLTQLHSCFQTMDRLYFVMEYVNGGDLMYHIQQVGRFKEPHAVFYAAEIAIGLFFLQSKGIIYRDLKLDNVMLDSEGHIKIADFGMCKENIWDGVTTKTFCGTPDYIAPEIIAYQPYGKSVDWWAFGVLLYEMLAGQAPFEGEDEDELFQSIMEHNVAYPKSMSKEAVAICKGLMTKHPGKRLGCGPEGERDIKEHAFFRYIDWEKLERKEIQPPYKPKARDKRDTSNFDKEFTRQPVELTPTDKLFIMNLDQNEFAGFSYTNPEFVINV

[13] = target: Tyrosine-protein kinase ZAP-70 (Homo sapiens, UniProt P43403); assay: Inhibition of ZAP70
Tyrosine-protein kinase ZAP-70, sequence (P43403 whole entry): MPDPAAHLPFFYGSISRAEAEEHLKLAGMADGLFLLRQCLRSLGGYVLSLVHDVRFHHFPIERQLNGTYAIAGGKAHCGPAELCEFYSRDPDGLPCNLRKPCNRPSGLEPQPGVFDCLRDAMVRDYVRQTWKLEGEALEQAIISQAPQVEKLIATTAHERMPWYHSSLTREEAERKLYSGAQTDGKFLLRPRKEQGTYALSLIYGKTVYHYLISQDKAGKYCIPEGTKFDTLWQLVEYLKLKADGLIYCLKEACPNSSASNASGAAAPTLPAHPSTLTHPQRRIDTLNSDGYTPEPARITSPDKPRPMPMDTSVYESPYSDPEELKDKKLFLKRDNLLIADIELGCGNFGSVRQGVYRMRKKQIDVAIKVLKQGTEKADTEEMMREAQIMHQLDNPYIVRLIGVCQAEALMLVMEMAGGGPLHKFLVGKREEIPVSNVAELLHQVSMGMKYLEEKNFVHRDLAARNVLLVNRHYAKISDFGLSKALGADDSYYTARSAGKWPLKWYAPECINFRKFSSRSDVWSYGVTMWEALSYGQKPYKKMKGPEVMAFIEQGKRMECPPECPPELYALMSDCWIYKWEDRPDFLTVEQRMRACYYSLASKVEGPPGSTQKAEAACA

[14] = Antiproliferative activity against human NCI60 cells
HeLa [15] = assay: Antiproliferative activity against p53 deficient human HeLa cells after 72 hrs; type: functional, cell-based
Jurkat [16] = assay: Antiproliferative activity against p53 deficient human Jurkat cells after 72 hrs by proliferative assay; type: functional, cell-based
[17] = Antiproliferative activity against p53 deficient human A2780/E6 cells after 72 hrs by proliferative assay; type: functional, cell-based; settings: A2780/E6, 72 h
HCT-15 [18] = assay: Antiproliferative activity against human HCT15 cells expressing p53 gene after 72 hrs by proliferative assay; type: functional, cell-based; settings: HCT-15, 72 h
SF-268 [19] = assay: Induction of cell cycle arrest in p53 deficient human SF268 cells assessed as accumulation at subG1 phase at 5 uM after 24 hrs FACS analysis; type: functional
Jurkat [20] = assay: Induction of cell cycle arrest in p53 deficient human Jurkat cells assessed as accumulation at subG1 phase at 5 uM after 24hrs by FACS analysis; type: functional
SF-539 [21] = assay: Induction of cell cycle arrest in human SF539 cells expressing p53 gene assessed as accumulation at subG1 phase at 5 uM after 24hrs by FACS analysis; type: functional
SF-268 [22] = assay: Induction of cell cycle arrest in p53 deficient human SF268 cells assessed as accumulation at subG1 phase at 10 uM after 24 hrs FACS analysis; type: functional
K562 [23] = assay: Induction of cell cycle arrest in p53 deficient human K562 cells assessed as accumulation at subG1 phase at 10 uM after 24hrs by FACS analysis; type: functional
HeLa [24] = assay: Induction of cell cycle arrest in p53 deficient human HeLa cells assessed as accumulation at subG1 phase at 10 uM after 24hrs by FACS analysis; type: functional
SW480 [25] = assay: Induction of cell cycle arrest in p53 deficient human SW480 cells assessed as accumulation at subG1 phase at 10 uM after 24hrs by FACS analysis; type: functional
HCT-116 = assay: Induction of cell cycle arrest in human HCT116 cells expressing p53 gene assessed as accumulation at subG1 phase at 10 uM after 24 hrs by FACS analysis; type: functional
HCT-15 [26] = assay: Induction of cell cycle arrest in human HCT15 cells expressing p53 gene assessed as accumulation at subG1 phase at 10 uM after 24 hrs by FACS analysis; type: functional
SF-539 [27] = assay: Induction of cell cycle arrest in human SF539 cells expressing p53 gene assessed as accumulation at subG1 phase at 10 uM after 24 hrs by FACS analysis; type: functional
U2OS [28] = assay: Induction of cell cycle arrest in human U2OS cells expressing p53 gene assessed as accumulation at subG1 phase at 10 uM after 24 hrs by FACS analysis; type: functional
SF-268 [29] = assay: Induction of cell cycle arrest in p53 deficient human SF268 cells assessed as residual DNA synthesis at 5 uM after 24 hrs FACS analysis; type: functional
K562 [30] = assay: Induction of cell cycle arrest in p53 deficient human K562 cells assessed as residual DNA synthesis at 5 uM after 24hrs by FACS analysis; type: functional
SW480 [31] = assay: Induction of cell cycle arrest in p53 deficient human SW480 cells assessed as residual DNA synthesis at 5 uM after 24 hrs by FACS analysis; type: functional
MCF7 = assay: Induction of cell cycle arrest in human MCF7 cells expressing p53 gene assessed as residual DNA synthesis at 5 uM after 24 hrs by FACS analysis; type: functional
HCT-15 [32] = assay: Induction of cell cycle arrest in human HCT15 cells expressing p53 gene assessed as residual DNA synthesis at 5 uM after 24 hrs by FACS analysis; type: functional
SF-539 [33] = assay: Induction of cell cycle arrest in human SF539 cells expressing p53 gene assessed as residual DNA synthesis at 5 uM after 24 hrs by FACS analysis; type: functional
U2OS [34] = assay: Induction of cell cycle arrest in human U2OS cells expressing p53 gene assessed as residual DNA synthesis at 5 uM after 24 hrs by FACS analysis; type: functional
SW480 [35] = assay: Induction of cell cycle arrest in p53 deficient human SW480 cells assessed as residual DNA synthesis at 10 uM after 24 hrs by FACS analysis; type: functional
OVCAR-8 = assay: Induction of cell cycle arrest in p53 deficient human OVCAR8 cells assessed as residual DNA synthesis at 10 uM after 24 hrs by FACS analysis; type: functional
SF-539 [36] = assay: Induction of cell cycle arrest in human SF539 cells expressing p53 gene assessed as residual DNA synthesis at 10 uM after 24 hrs by FACS analysis; type: functional
U2OS [37] = assay: Induction of cell cycle arrest in human U2OS cells expressing p53 gene assessed as residual DNA synthesis at 10 uM after 24 hrs by FACS analysis; type: functional
NHDF = assay: Induction of cell cycle arrest in NHDF expressing p53 gene assessed as residual DNA synthesis at 10 uM after 24 hrs by FACS analysis; type: cell-based; settings: human

For `O=C1NCCc2[nH]c(-c3ccncc3)cc21`, which Activity (HeLa [1]) is on record?
The Activity was 236 kilobase.

What about the Activity (HeLa [2]) of the same molecule?
Its Activity is 241 kilobase.

What about the Activity (HeLa [3]) of the same molecule?
Its Activity is 210 kilobase.

And the Activity (HeLa [4])?
The Activity was 288 kilobase.

And the Activity (HeLa [5])?
The Activity was 287 kilobase.

What about the Activity (HeLa [6]) of the same molecule?
The Activity was 287 kilobase.

And the Activity (HeLa [7])?
The Activity was 1.81 kilobase.

And the Activity (HeLa [8])?
Its Activity is 1.92 kilobase.

And the Activity (HeLa [9])?
The Activity was 2.28 kilobase.

What about the Activity (HeLa [10]) of the same molecule?
Its Activity is 26%.

And the AUC (Mus musculus)?
The AUC was 71 µM·h.

And the IC50 [11]?
Its IC50 is > 10 µM.

And the IC50 [12]?
The IC50 was > 10 µM.

What about the IC50 [13] of the same molecule?
The IC50 was > 10 µM.

And the IC50 [14]?
The IC50 was 3.1 µM.

What about the IC50 (HeLa [15]) of the same molecule?
Its IC50 is 1.83 µM.

What about the IC50 (Jurkat [16]) of the same molecule?
Its IC50 is 3.2 µM.

What about the IC50 [17] of the same molecule?
Its IC50 is 1.5 µM.

And the IC50 (HCT-15 [18])?
Its IC50 is 3.81 µM.

What about the Activity (SF-268 [19]) of the same molecule?
The Activity was 3%.

And the Activity (Jurkat [20])?
The Activity was >20%.

What about the Activity (SF-539 [21]) of the same molecule?
The Activity was 3%.

And the Activity (SF-268 [22])?
Its Activity is 3%.

What about the Activity (K562 [23]) of the same molecule?
The Activity was <3%.

What about the Activity (HeLa [24]) of the same molecule?
Its Activity is 10%.

What about the Activity (SW480 [25]) of the same molecule?
Its Activity is >20%.

And the Activity (HCT-116)?
Its Activity is 3%.

And the Activity (HCT-15 [26])?
The Activity was 3%.

What about the Activity (SF-539 [27]) of the same molecule?
The Activity was 3%.

What about the Activity (U2OS [28]) of the same molecule?
Its Activity is 3%.

And the Activity (SF-268 [29])?
The Activity was <3%.

What about the Activity (K562 [30]) of the same molecule?
The Activity was 10%.

And the Activity (SW480 [31])?
Its Activity is <3%.

What about the Activity (MCF7) of the same molecule?
The Activity was <3%.

And the Activity (HCT-15 [32])?
Its Activity is <3%.

And the Activity (SF-539 [33])?
Its Activity is 3%.

And the Activity (U2OS [34])?
The Activity was <3%.

And the Activity (SW480 [35])?
Its Activity is <3%.

What about the Activity (OVCAR-8) of the same molecule?
The Activity was <3%.

What about the Activity (SF-539 [36]) of the same molecule?
Its Activity is <3%.

And the Activity (U2OS [37])?
Its Activity is <3%.

What about the Activity (NHDF) of the same molecule?
The Activity was < 3%.
